Assay results published in patent US11517754B2 (priority 2017, dated 2022).

Columns and labels:
[1] = system: catecholaminergic fibers projecting to pancreatic LN; design: species or system tdTomatoTH-Cre mice
[2] = system: OVA-specific CD8+ TCR transgenic T-cells; assay: Pancreatic auto-antigen cross-presentation: proliferation of adoptively transferred OVA-specific CD8+ T cells in RIP-OVA mice under PNES; type: in vivo, RIP-OVA transgenic mice; conditions: PNES 450 μA, 10 Hz, 2 mn, 3 times/day; FIG. 3C

SMILES	Field Action Potentials (FAP) peak amplitude after addition of TTX to the medium [1]	Effect of PNES on auto-antigen cross-presentation (T cell proliferation relative to sham) in mice treated with propranolol [2]
NC1=N[C@H](O)[C@H]2[C@H]3O[C@]4(O)O[C@@H]([C@@H](O)[C@@]2(N1)[C@@H]4O)[C@]3(O)CO [tetrodotoxin]	inhibited	
CC(C)NCC(O)COc1cccc2ccccc12 (centres unmarked) [propranolol]		β-AR-dependent
